Results on 39 molecules are retold here after US9487515B2, “Compounds modulating c-fms and/or c-kit activity and uses therefor” (Plexxikon Inc., priority 2006, dated 2016).

For this experiment, the target named is c-kit (Homo sapiens, UniProt P10721). The experiment is described as follows: c-kit assays of Examples 40 and 41 (AlphaScreen kinase assays at 10 and 100 μM ATP, 33P-ATP filter assay, M-07e SCF-stimulated proliferation and phosphorylation). Background: Bead proximity is the source of the signal in Alpha formats.
Sequence of c-kit (P10721 with tags, fused parts or gaps): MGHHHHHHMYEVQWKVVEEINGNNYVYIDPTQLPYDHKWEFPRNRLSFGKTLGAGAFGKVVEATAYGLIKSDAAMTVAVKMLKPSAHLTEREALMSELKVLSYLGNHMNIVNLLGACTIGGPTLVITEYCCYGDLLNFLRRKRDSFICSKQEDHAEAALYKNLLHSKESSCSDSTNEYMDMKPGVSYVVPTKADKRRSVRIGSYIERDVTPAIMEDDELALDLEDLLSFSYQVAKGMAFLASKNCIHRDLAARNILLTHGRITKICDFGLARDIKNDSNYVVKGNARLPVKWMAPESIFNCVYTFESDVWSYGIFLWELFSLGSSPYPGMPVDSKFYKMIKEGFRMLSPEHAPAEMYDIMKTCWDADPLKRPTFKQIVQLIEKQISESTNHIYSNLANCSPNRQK

On to `COc1cnc2[nH]cc(Cc3ccc(NCc4ccc(OC)nc4)nc3)c2c1` [P-0332, (6-Methoxy-pyridin-3-ylmethyl)-[5-(5-methoxy-1H-pyrrolo[2,3-b]pyridin-3-ylmethyl)-pyridin-2-yl]-amine], for which the IC50 (as a rule, the concentration that gives 50% inhibition) is below 1 µM. Next, `COc1cnc2[nH]cc(Cc3ccc(NCc4c(F)cccc4F)nc3)c2c1` [P-0334, (2,6-Difluoro-benzyl)-[5-(5-methoxy-1H-pyrrolo[2,3-b]pyridin-3-ylmethyl)-pyridin-2-yl]-amine]: below 1 µM; `COc1ccccc1CNc1ccc(Cc2c[nH]c3ncccc23)cn1` [P-0336, (2-Methoxy-benzyl)-[5-(1H-pyrrolo[2,3-b]pyridin-3-ylmethyl)-pyridin-2-yl]-amine]: below 1 µM. In the case of `COc1ccccc1CNc1ccc(Cc2c[nH]c3ncc(C#N)cc23)cn1` [P-0337, 3-[6-(2-Methoxy-benzylamino)-pyridin-3-ylmethyl]-1H-pyrrolo[2,3-b]pyridine-5-carbonitrile] it was below 1 µM; in that of `FC(F)Oc1ccccc1CNc1ccc(Cc2c[nH]c3ncc(Cl)cc23)cn1` [P-0338, [5-(5-Chloro-1H-pyrrolo[2,3-b]pyridin-3-ylmethyl)-pyridin-2-yl]-(2-difluoromethoxy-benzyl)-amine], below 1 µM.

On to `N#Cc1cnc2[nH]cc(Cc3ccc(NCc4ccccc4OC(F)F)nc3)c2c1` [P-0339, 3-[6-(2-Difluoromethoxy-benzylamino)-pyridin-3-ylmethyl]-1H-pyrrolo[2,3-b]pyridine-5-carbonitrile], for which the IC50 was below 1 µM.

`Fc1cccc(F)c1CNc1ccc(Cc2c[nH]c3ncccc23)cn1` [P-0340, (2,6-Difluoro-benzyl)-[5-(1H-pyrrolo[2,3-b]pyridin-3-ylmethyl)-pyridin-2-yl]-amine] returned an IC50 below 1 µM. Next, `Clc1ccc(CNc2ccc(Cc3c[nH]c4ncccc34)cn2)c(Cl)c1` [P-0342, (2,4-Dichloro-benzyl)-[5-(1H-pyrrolo[2,3-b]pyridin-3-ylmethyl)-pyridin-2-yl]-amine]: below 1 µM. Next, `Fc1cccc(CNc2ccc(Cc3c[nH]c4ncccc34)cn2)c1` [P-0343, (3-Fluoro-benzyl)-[5-(1H-pyrrolo[2,3-b]pyridin-3-ylmethyl)-pyridin-2-yl]-amine]: below 1 µM; `Fc1cc(C(F)(F)F)ccc1CNc1ccc(Cc2c[nH]c3ncccc23)cn1` [P-0344, (2-Fluoro-4-trifluoromethyl-benzyl)-[5-(1H-pyrrolo[2,3-b]pyridin-3-ylmethyl)-pyridin-2-yl]-amine]: below 1 µM; `Fc1cc(Cl)ccc1CNc1ccc(Cc2c[nH]c3ncccc23)cn1` [P-0345, (4-Chloro-2-fluoro-benzyl)-[5-(1H-pyrrolo[2,3-b]pyridin-3-ylmethyl)-pyridin-2-yl]-amine]: below 1 µM.

Turning to `Fc1cc(CNc2ccc(Cc3c[nH]c4ncccc34)cn2)cc(C(F)(F)F)c1` [P-0346, (3-Fluoro-5-trifluoromethyl-benzyl)-[5-(1H-pyrrolo[2,3-b]pyridin-3-ylmethyl)-pyridin-2-yl]-amine], the IC50 was below 1 µM.

For the molecule `c1cnc(N2CCOCC2)c(CNc2ccc(Cc3c[nH]c4ncccc34)cn2)c1` [P-0347, (2-Morpholin-4-yl-pyridin-3-ylmethyl)-[5-(1H-pyrrolo[2,3-b]pyridin-3-ylmethyl)-pyridin-2-yl]-amine], the half-maximal inhibitory concentration (IC50) was below 1 µM. In the case of `FC(F)(F)c1cc(CNc2ccc(Cc3c[nH]c4ncccc34)cn2)ccc1Cl` [P-0348, (4-Chloro-3-trifluoromethyl-benzyl)-[5-(1H-pyrrolo[2,3-b]pyridin-3-ylmethyl)-pyridin-2-yl]-amine] it was below 1 µM. As for `Fc1ccc(C(F)(F)F)cc1CNc1ccc(Cc2c[nH]c3ncccc23)cn1` [P-0350, (2-Fluoro-5-trifluoromethyl-benzyl)-[5-(1H-pyrrolo[2,3-b]pyridin-3-ylmethyl)-pyridin-2-yl]-amine], the IC50 is below 1 µM. `Clc1cccc(CNc2ccc(Cc3c[nH]c4ncccc34)cn2)c1Cl` [P-0351, (2,3-Dichloro-benzyl)-[5-(1H-pyrrolo[2,3-b]pyridin-3-ylmethyl)-pyridin-2-yl]-amine]: the IC50 was below 1 µM.

On to `COc1cccc(CNc2ccc(Cc3c[nH]c4ncccc34)cn2)c1F` [P-0352, (2-Fluoro-3-methoxy-benzyl)-[5-(1H-pyrrolo[2,3-b]pyridin-3-ylmethyl)-pyridin-2-yl]-amine], for which the IC50 is below 1 µM. Next, `Fc1c(Cl)cccc1CNc1ccc(Cc2c[nH]c3ncccc23)cn1` [P-0354, (3-Chloro-2-fluoro-benzyl)-[5-(1H-pyrrolo[2,3-b]pyridin-3-ylmethyl)-pyridin-2-yl]-amine]: below 1 µM.

`Fc1ccc(CNc2ccc(Cc3c[nH]c4ncccc34)cn2)nc1` [P-0355, (5-Fluoro-pyridin-2-ylmethyl)-[5-(1H-pyrrolo[2,3-b]pyridin-3-ylmethyl)-pyridin-2-yl]-amine] displayed an IC50 below 1 µM. In the case of `Fc1cc(F)cc(CNc2ccc(Cc3c[nH]c4ncccc34)cn2)c1` [P-0356, (3,5-Difluoro-benzyl)-[5-(1H-pyrrolo[2,3-b]pyridin-3-ylmethyl)-pyridin-2-yl]-amine] it was below 1 µM; in that of `CCCOc1ccccc1CNc1ccc(Cc2c[nH]c3ncccc23)cn1` [P-0357, (2-Propoxy-benzyl)-[5-(1H-pyrrolo[2,3-b]pyridin-3-ylmethyl)-pyridin-2-yl]-amine], below 1 µM; in that of `c1ccc(N2CCOCC2)c(CNc2ccc(Cc3c[nH]c4ncccc34)cn2)c1` [P-0358, (2-Morpholin-4-yl-benzyl)-[5-(1H-pyrrolo[2,3-b]pyridin-3-ylmethyl)-pyridin-2-yl]-amine], below 1 µM. Next, `COc1cccc(CNc2ccc(Cc3c[nH]c4ncccc34)cn2)c1Cl` [P-0359, (2-Chloro-3-methoxy-benzyl)-[5-(1H-pyrrolo[2,3-b]pyridin-3-ylmethyl)-pyridin-2-yl]-amine]: below 1 µM.

In turn, `c1ccc(OCCN2CCOCC2)c(CNc2ccc(Cc3c[nH]c4ncccc34)cn2)c1` [P-0361, [2-(2-Morpholin-4-yl-ethoxy)-benzyl]-[5-(1H-pyrrolo[2,3-b]pyridin-3-ylmethyl)-pyridin-2-yl]-amine] yielded an IC50 below 1 µM. Next, `Fc1cccc(CNc2ccc(Cc3c[nH]c4ncccc34)cn2)c1F` [P-0362, (2,3-Difluoro-benzyl)-[5-(1H-pyrrolo[2,3-b]pyridin-3-ylmethyl)-pyridin-2-yl]-amine]: below 1 µM; `FC(F)(F)c1cccc(CNc2ccc(Cc3c[nH]c4ncccc34)cn2)c1Cl` [P-0363, (2-Chloro-3-trifluoromethyl-benzyl)-[5-(1H-pyrrolo[2,3-b]pyridin-3-ylmethyl)-pyridin-2-yl]-amine]: below 1 µM. For the molecule `Fc1c(CNc2ccc(Cc3c[nH]c4ncccc34)cn2)cccc1C(F)(F)F` [P-0365, (2-Fluoro-3-trifluoromethyl-benzyl)-[5-(1H-pyrrolo[2,3-b]pyridin-3-ylmethyl)-pyridin-2-yl]-amine], the IC50 is below 1 µM. Next, `COc1ccc(F)cc1CNc1ccc(Cc2c[nH]c3ncccc23)cn1` [P-0366, (5-Fluoro-2-methoxy-benzyl)-[5-(1H-pyrrolo[2,3-b]pyridin-3-ylmethyl)-pyridin-2-yl]-amine]: below 1 µM; `FC(F)Oc1ccccc1CNc1ccc(Cc2c[nH]c3ncccc23)cn1` [P-0367, (2-Difluoromethoxy-benzyl)-[5-(1H-pyrrolo[2,3-b]pyridin-3-ylmethyl)-pyridin-2-yl]-amine]: below 1 µM; `Cc1ccc(CNc2ccc(Cc3c[nH]c4ncccc34)cn2)c(F)c1` [P-0368, (2-Fluoro-4-methyl-benzyl)-[5-(1H-pyrrolo[2,3-b]pyridin-3-ylmethyl)-pyridin-2-yl]-amine]: below 1 µM. In the case of `CN(C)CCCOc1ccccc1CNc1ccc(Cc2c[nH]c3ncccc23)cn1` [P-0369, [2-(3-Dimethylamino-propoxy)-benzyl]-[5-(1H-pyrrolo[2,3-b]pyridin-3-ylmethyl)-pyridin-2-yl]-amine] it was below 1 µM; in that of `COc1ccc(CNc2ccc(Cc3c[nH]c4ncccc34)cn2)c(OC)n1` [P-0370, (2,6-Dimethoxy-pyridin-3-ylmethyl)-[5-(1H-pyrrolo[2,3-b]pyridin-3-ylmethyl)-pyridin-2-yl]-amine], below 1 µM; in that of `COc1ccc(F)c(CNc2ccc(Cc3c[nH]c4ncccc34)cn2)c1` [P-0371, (2-Fluoro-5-methoxy-benzyl)-[5-(1H-pyrrolo[2,3-b]pyridin-3-ylmethyl)-pyridin-2-yl]-amine], below 1 µM. Molecule `Cc1cc(F)ccc1CNc1ccc(Cc2c[nH]c3ncccc23)cn1` [P-0372, (4-Fluoro-2-methyl-benzyl)-[5-(1H-pyrrolo[2,3-b]pyridin-3-ylmethyl)-pyridin-2-yl]-amine] came in with a 50% inhibitory concentration (IC50) below 1 µM. In turn, `Fc1cc(Cl)cc(CNc2ccc(Cc3c[nH]c4ncccc34)cn2)c1` [P-0373, (3-Chloro-5-fluoro-benzyl)-[5-(1H-pyrrolo[2,3-b]pyridin-3-ylmethyl)-pyridin-2-yl]-amine] returned an IC50 below 1 µM. Next, `Fc1ccc(C(F)(F)F)c(CNc2ccc(Cc3c[nH]c4ncccc34)cn2)c1` [P-0375, (5-Fluoro-2-trifluoromethyl-benzyl)-[5-(1H-pyrrolo[2,3-b]pyridin-3-ylmethyl)-pyridin-2-yl]-amine]: below 1 µM; `FC(F)(F)COc1ncccc1CNc1ccc(Cc2c[nH]c3ncccc23)cn1` [P-0376, [5-(1H-Pyrrolo[2,3-b]pyridin-3-ylmethyl)-pyridin-2-yl]-[2-(2,2,2-trifluoro-ethoxy)-pyridin-3-ylmethyl]-amine]: below 1 µM; `CCCS(=O)(=O)Nc1cccc(CNc2ccc(Cc3c[nH]c4ncccc34)cn2)c1F` [P-0377, Propane-1-sulfonic acid (2-fluoro-3-{[5-(1H-pyrrolo[2,3-b]pyridin-3-ylmethyl)-pyridin-2-ylamino]-methyl}-phenyl)-amide]: below 1 µM. In the case of `COc1ccc(CNc2ccc(Cc3c[nH]c4ncccc34)c(F)n2)cn1` [P-0378, [6-Fluoro-5-(1H-pyrrolo[2,3-b]pyridin-3-ylmethyl)-pyridin-2-yl]-(6-methoxy-pyridin-3-ylmethyl)-amine] it was below 1 µM.
